What follows are compounds tested on swine adipose tissue (assay: Inhibition of lipogenesis (uptake of radioactive carbon from glucose-U^14 C into lipid) in swine adipose tissue slices). Conditions: 100 micrograms per milliliter, 37° C., 2 hours, 5% DMSO, with insulin, triplicate.
Type: cell-based
Source text: The manner in which they cause this effect is not known with certainty; it is believed that they interfere with the synthesis of fatty acids in the tissues. Their effectiveness for this purpose has been ascertained by immersing samples of swine adipose tissue in a liquid medium containing radioactive glucose and the test chemical for a period of time, then isolating the lipid from the treated tissue and determining the up-take of the radioactive carbon by means of scintillation counting techniques. These tests were conducted in swine adipose tissue because in swine, the primary site of lipogenesis--i.e., fatty acid synthesis--appears to be adipose tissue.
Described in more detail, the tests were conducted according to the following general procedure.
150 milligrams of slices of swine adipose tissue were incubated at 37° C. for 2 hours with shaking in 3 milliliters of Krebs-Ringer bicarbonate solution containing one-half the normal calcium ion concentration, 60 micromoles of glucose, 0.5 micro-Curie of glucose-U^14 C, and 300 microunits of insulin, and 5% dimethyl sulfoxide (DMSO). The test compounds were added as a solution or suspension in DMSO and were present at a concentration of 100 micrograms per milliliter of the incubation mixture.
The incubation was terminated by addition of 0.25 milliliter of 1 N sulfuric acid. The resulting mixture was extracted with a total of 25 milliliters of chloroform:methanol (2:1, v/v). The extracts were washed according to Folch et al. (J. Biol. Chem., 226, 497-509, (1957)), air dried, and counted in a liquid scintillation counter with 15 milliliters of counting fluid (two parts toluene containing 0.4% w/v New England Nuclear Omnifluor: 1 part Triton X-100). The tests were conducted in triplicate and were accompanied by control tests in which all ingredients,proportions and conditions were the same except that no test compound was included. From the data obtained were calculated the percent inhibition of lipid synthesis by the test compound in each case. The data obtained from the tests are set out in Table 1, as the percent inhibition of lipogenesis compared to the results obtained in the control tests wherein only the test compound was omitted.
In the case of `C=CCNC(=O)C1CSc2cc(NS(C)(=O)=O)ccc2O1` (centres unmarked) [Compound 7, 6-Methylsulfonamido-3,4-dihydro-N-(2-propenyl)-1,4-benzoxathiin-2-carboxamide], the “Percent Inhibition (of lipogenesis compared to control tests)” value (“Percent Inhibition” for short) was 46%. For `C=CCNC(=O)C1CSc2cc(N)ccc2O1` (centres unmarked) [Compound 6, 6-Amino-2,3-dihydro-N-(2-propenyl)-1,4-benzoxathiin-2-carboxamide], the “Percent Inhibition” value was 29%. In the case of `C=CCNC(=O)C1CSc2cc(C(F)(F)F)ccc2O1` (centres unmarked) [Compound 4, 6-(Trifluoromethyl)-2,3-dihydro-N-(2-propenyl)-1,4-benzoxathiin-2-carboxamide], the “Percent Inhibition” value was 30%. In the case of `C=CCNC(=O)C1CSc2cc(Cl)ccc2O1` (centres unmarked) [Compound 3, 6-Chloro-2,3-dihydro-N-(2-propenyl)-1,4-benzoxathiin-2-carboxamide], the “Percent Inhibition” value was 54%. `C=CCNC(=O)C1CSc2ccccc2O1` (centres unmarked) [Compound 1, 2,3-Dihydro-N-(2-propenyl)-1,4-benzoxathiin-2-carboxamide] was tested, and the “Percent Inhibition” value was 63%. `C=CCNC(=O)C1CSc2ccc(C)cc2O1` (centres unmarked) [Compound 8, 2,3-Dihydro-7-methyl-N-(2-propenyl)-1,4-benzoxathiin-2-carboxamide] was tested, and the “Percent Inhibition” value was 26%. With `C=CCNC(=O)C1CSc2cc([N+](=O)[O-])ccc2O1` (centres unmarked) [Compound 5, 6-Nitro-2,3-dihydro-N-(2-propenyl)-1,4-benzoxathiin-2-carboxamide] the “Percent Inhibition” value was 45%. In the case of `C=CCNC(=O)C1CSc2cc(C)ccc2O1` (centres unmarked) [Compound 2, 2,3-Dihydro-6-methyl-N-(2-propenyl)-1,4-benzoxathiin-2-carboxamide], the “Percent Inhibition” value was 63%.

Reference: patent US4308276A, “Inhibiting lipogenesis with benzoxathiincarboxamides” (Shell Oil Company, priority 1978, dated 1981)
